Laboratory results published in patent publication US20260078135A1, “POLYCYCLIC QUINAZOLINES FOR INHIBITION OF ERBB2” (Enliven Inc., priority 2022, published 2026).
pIC50: −log10 of the molar value.

Key:
[1] = molecular target: Ba/F3 ERBB2 YVMA (Homo sapiens, UniProt P04626, DUP772-775, cells depend on it); experiment: Cell viability assay (CellTiter Glo), Ba/F3 cells engineered to express ERBB2 YVMA; type: cell-based, mouse; settings: Ba/F3 cells expressing human ERBB2 YVMA mutant, 72 hours, read-out: Ba/F3 ERBB2 YVMA, IC50
Procedure, shortened: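 Ba/F3 cells (IL-3-independent via stable retroviral human ERBB2 YVMA) seeded 3000/well and given compound from about 10 μM to 0.51 nM in three-fold steps, DMSO ≤0.1%, 72 h at 37° C. Viability by CellTiter Glo luminescence, normalized to DMSO and media-only controls. Sigmoidal nonlinear fit.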

[2] = molecular target: T1, phosphorylated EGFR (pEGFR) (Homo sapiens, UniProt P00533); experiment: Detection of phosphorylated EGFR (pEGFR) by AlphaLISA in EGF-stimulated A431 cells; type: cell-based; settings: A431 cells (10% FBS), 4 hours incubation, EGF 30 ng/mL for 10 minutes
T1 construct: performed to measure phosphorylated EGFR levels using A431 cells (10% FBS); endogenous in cells; host or cells: A431
Procedure, shortened: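 A431 cells in 10% FBS were preincubated with compound for 4 h at 37 °C, then stimulated with 30 ng/mL EGF for 10 min and lysed. pEGFR read by AlphaLISA. % inhibition normalised to DMSO and staurosporine controls; IC50 from four-parameter curve fit.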

[3] = molecular target: T2, phosphorylated ERBB2 (pERBB2) (Homo sapiens, UniProt P04626); experiment: Detection of phosphorylated ERBB2 (pERBB2) by ELISA in BT-474 cells; type: cell-based; settings: four hour incubation
T2 construct: endogenous in cells; host or cells: BT-474
Procedure, shortened: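 BT-474 cells were treated with compounds (fourfold dilutions, 10 μM to 0.01 nM final) for 4 h at 37 °C, then lysed. pERBB2 in lysates was quantified by ELISA with an HRP anti-phosphotyrosine detection antibody and TMB read at 450 nm; % relative activity was normalized to no-cell and 0.1% DMSO controls.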

T2 sequence (P04626 23-1255): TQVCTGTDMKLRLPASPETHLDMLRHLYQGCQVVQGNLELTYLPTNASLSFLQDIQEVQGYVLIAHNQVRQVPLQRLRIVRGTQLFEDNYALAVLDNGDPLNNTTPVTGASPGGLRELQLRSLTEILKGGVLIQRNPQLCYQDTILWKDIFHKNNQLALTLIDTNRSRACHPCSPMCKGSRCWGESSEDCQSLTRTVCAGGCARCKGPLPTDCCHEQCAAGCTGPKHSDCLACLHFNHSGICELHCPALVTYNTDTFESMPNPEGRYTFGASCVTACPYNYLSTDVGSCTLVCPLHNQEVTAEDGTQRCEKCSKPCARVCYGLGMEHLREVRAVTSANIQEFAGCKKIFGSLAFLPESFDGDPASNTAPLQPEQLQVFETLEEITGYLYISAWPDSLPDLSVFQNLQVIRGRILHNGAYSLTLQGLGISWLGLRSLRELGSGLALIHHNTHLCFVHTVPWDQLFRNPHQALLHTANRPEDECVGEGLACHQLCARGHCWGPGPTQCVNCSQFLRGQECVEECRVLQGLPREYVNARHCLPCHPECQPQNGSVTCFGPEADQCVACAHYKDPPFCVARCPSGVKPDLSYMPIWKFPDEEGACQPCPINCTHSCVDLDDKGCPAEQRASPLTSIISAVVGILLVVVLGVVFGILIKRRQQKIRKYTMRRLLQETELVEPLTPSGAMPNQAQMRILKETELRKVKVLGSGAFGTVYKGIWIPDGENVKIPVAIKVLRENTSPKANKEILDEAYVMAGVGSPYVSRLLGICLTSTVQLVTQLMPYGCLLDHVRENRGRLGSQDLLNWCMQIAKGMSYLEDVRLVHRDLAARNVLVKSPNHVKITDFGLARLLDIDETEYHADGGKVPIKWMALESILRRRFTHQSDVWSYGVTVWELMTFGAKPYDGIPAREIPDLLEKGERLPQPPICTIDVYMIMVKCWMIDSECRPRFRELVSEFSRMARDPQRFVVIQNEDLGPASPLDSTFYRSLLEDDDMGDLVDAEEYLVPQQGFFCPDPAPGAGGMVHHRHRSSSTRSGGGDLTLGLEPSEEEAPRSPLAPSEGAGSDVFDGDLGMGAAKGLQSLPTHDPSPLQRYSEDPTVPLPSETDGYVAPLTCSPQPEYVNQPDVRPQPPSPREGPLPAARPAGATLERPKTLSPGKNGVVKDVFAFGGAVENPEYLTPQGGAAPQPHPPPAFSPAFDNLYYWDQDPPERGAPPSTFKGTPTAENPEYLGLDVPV
T1 sequence (P00533 25-1210): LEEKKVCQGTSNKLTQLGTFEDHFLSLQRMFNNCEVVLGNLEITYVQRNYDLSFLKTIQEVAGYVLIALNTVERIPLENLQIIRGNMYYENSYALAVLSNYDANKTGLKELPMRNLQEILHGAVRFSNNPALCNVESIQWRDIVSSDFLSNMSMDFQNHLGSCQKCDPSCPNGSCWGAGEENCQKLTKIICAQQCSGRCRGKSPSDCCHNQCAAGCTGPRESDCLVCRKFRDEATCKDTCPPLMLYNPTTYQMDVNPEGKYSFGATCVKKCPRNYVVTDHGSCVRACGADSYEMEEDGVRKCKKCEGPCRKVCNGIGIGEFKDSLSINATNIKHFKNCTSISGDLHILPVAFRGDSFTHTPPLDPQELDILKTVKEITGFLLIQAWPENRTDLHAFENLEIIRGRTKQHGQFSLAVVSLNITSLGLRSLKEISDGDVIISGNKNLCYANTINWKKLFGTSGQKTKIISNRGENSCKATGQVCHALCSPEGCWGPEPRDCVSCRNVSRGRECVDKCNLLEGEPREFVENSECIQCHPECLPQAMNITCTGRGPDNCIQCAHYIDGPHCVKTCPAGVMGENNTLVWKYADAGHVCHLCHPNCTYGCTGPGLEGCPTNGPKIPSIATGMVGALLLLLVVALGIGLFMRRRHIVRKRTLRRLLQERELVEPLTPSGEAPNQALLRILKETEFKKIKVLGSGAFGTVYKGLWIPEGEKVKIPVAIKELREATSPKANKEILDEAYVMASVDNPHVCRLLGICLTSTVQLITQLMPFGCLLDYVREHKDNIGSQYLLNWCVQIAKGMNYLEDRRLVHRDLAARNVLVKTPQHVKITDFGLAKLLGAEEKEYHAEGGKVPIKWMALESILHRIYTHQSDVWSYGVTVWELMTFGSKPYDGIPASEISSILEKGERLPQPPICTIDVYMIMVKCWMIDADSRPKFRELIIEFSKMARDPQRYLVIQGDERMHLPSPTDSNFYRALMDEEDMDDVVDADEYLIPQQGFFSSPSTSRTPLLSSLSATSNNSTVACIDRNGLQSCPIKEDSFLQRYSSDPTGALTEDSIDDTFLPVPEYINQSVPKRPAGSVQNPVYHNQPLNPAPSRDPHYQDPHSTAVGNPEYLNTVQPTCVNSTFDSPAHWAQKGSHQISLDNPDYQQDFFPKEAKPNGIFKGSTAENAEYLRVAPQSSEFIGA
Sequence of Ba/F3 ERBB2 YVMA (P04626 with tags, fused parts or gaps DUP772-775): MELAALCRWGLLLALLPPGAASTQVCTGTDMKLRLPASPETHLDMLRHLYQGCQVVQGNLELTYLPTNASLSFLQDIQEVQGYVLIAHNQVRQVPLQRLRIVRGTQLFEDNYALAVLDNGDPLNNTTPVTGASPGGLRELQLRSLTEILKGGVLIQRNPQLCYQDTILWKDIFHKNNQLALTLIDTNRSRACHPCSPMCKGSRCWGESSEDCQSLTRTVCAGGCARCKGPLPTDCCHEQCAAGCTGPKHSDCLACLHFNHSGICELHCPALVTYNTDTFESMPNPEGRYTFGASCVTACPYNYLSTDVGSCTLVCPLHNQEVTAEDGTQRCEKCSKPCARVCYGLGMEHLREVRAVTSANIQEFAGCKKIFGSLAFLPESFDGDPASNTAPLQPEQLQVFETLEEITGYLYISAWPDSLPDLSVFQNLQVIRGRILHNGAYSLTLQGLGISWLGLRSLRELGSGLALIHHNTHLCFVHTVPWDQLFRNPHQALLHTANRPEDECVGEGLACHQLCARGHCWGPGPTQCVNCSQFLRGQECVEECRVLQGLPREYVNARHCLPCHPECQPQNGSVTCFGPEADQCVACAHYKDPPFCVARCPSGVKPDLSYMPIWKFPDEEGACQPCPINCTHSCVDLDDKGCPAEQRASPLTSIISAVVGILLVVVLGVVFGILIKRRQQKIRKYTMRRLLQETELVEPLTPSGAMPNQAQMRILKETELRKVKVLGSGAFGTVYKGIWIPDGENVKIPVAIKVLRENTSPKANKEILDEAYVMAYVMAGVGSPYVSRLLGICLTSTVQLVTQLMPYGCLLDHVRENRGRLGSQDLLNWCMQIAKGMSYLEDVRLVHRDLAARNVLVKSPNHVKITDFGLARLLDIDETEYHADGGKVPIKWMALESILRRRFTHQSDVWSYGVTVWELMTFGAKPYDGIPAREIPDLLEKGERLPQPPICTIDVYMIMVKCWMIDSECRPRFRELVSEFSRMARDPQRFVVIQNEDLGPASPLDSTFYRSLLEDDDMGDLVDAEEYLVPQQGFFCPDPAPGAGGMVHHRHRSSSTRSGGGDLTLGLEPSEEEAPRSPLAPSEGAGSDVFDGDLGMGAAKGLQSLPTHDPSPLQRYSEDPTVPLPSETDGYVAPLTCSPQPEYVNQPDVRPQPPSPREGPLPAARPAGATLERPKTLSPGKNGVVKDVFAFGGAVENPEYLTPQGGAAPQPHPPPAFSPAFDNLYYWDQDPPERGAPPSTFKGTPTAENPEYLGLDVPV

| Structure (SMILES) | pIC50 [2] | pIC50 [3] | GI50 [1] |
| --- | --- | --- | --- |
| CC#CC(=O)N1CCN2c3nc4c(Nc5ccc(Oc6ccn7ncnc7c6)c(C)c5)ncnc4cc3OC[C@@H]2C1 [Compound 32, (S)-1-(11-((4-([1,2,4]triazolo[1,5-a]pyridin-7-yloxy)-3-methylphenyl)amino)-1,2,4a,5-tetrahydropyrazino[1,2-d]pyrimido[4′,5′:5,6]pyrido[3,2-b][1,4]oxazin-3(4H)-yl)but-2-yn-1-one] | 5.32 | 7.29 | 18.3 nM |
| Cc1cc(Nc2ncnc3cc4c(nc23)N2CCN(C)C[C@H]2CO4)ccc1Oc1ccn2ncnc2c1 [Compound 33, (S)—N-(4-([1,2,4]triazolo[1,5-a]pyridin-7-yloxy)-3-methylphenyl)-3-methyl-1,2,3,4,4a,5-hexahydropyrazino[1,2-d]pyrimido[4′,5′:5,6]pyrido[3,2-b][1,4]oxazin-11-amine] | < 5.00 | 7.28 | 271 nM |
| CN(C)C/C=C/C(=O)N1CCN2C[C@@H]1COc1c2ccc2ncnc(Nc3ccc(Oc4ccn5ncnc5c4)cc3)c12 [Compound 77, (E)-1-((3R)-13-((4-([1,2,4]triazolo[1,5-a]pyridin-7-yloxy)phenyl)amino)-2,3,5,6-tetrahydro-4H-3,7-methano[1,4,7]oxadiazonino[2,3-f]quinazolin-4-yl)-4-(dimethylamino)but-2-en-1-one] | 6.34 | 8.19 | 14.4 nM |
| CN(C)C/C=C/C(=O)N1CCN2C[C@@H]1COc1c2ccc2ncnc(Nc3ccc(Oc4ccn5ncnc5c4)cc3F)c12 [Compound 78, (E)-1-((3R)-13-((4-([1,2,4]triazolo[1,5-a]pyridin-7-yloxy)-2-fluorophenyl)amino)-2,3,5,6-tetrahydro-4H-3,7-methano[1,4,7]oxadiazonino[2,3-f]quinazolin-4-yl)-4-(dimethylamino)but-2-en-1-one] | 6.47 | 8.05 | 10.9 nM |
| Cc1cc(Nc2ncnc3ccc4c(c23)OC[C@H]2CN4CCN2C(=O)/C=C/CN(C)C)ccc1Oc1ccc2c(c1)nnn2C [Compound 79, (E)-4-(dimethylamino)-1-((3R)-13-((3-methyl-4-((1-methyl-1H-benzo[d][1,2,3]triazol-5-yl)oxy)phenyl)amino)-2,3,5,6-tetrahydro-4H-3,7-methano[1,4,7]oxadiazonino[2,3-f]quinazolin-4-yl)but-2-en-1-one] | 7.07 | 7.85 | 6.04 nM |
| Cc1cc(Nc2ncnc3cnc4c(c23)OC[C@H]2CN4CCN2C(=O)/C=C/CN(C)C)ccc1Oc1ccn2ncnc2c1 [Compound 82, (E)-1-((3R)-13-((4-([1,2,4]triazolo[1,5-a]pyridin-7-yloxy)-3-methylphenyl)amino)-2,3,5,6-tetrahydro-4H-3,7-methanopyrimido[5′,4′:4,5]pyrido[3,2-b][1,4,7]oxadiazonin-4-yl)-4-(dimethylamino)but-2-en-1-one] | 6.70 | 8.10 | 6.9 nM |
| Cc1cc(Nc2ncnc3cnc4c(c23)OC[C@H]2CN4CCN2C(=O)/C=C/CN(C)C)c(F)cc1Oc1ccn2ncnc2c1 [Compound 83, (E)-1-((3R)-13-((4-([1,2,4]triazolo[1,5-a]pyridin-7-yloxy)-2-fluoro-5-methylphenyl)amino)-2,3,5,6-tetrahydro-4H-3,7-methanopyrimido[5′,4′:4,5]pyrido[3,2-b][1,4,7]oxadiazonin-4-yl)-4-(dimethylamino)but-2-en-1-one] | 6.46 | 7.76 | 14 nM |
| Cc1ccc(Oc2ccc(Nc3ncnc4ccc5c(c34)OC[C@H]3CN5CCN3C(=O)/C=C/CN(C)C)cc2C)cn1 [Compound 84, (E)-4-(dimethylamino)-1-((3R)-13-((3-methyl-4-((6-methylpyridin-3-yl)oxy)phenyl)amino)-2,3,5,6-tetrahydro-4H-3,7-methano[1,4,7]oxadiazonino[2,3-f]quinazolin-4-yl)but-2-en-1-one] | 7.22 | 7.84 | 2.95 nM |

Now from value to molecule, other results behind:

| pIC50 [2] | pIC50 [3] | Structure (SMILES) | GI50 [1] |
| --- | --- | --- | --- |
| < 5.00 | 7.27 | Cc1cc(Nc2ncnc3cc4c(nc23)N2CCNC[C@H]2CO4)ccc1Oc1ccn2ncnc2c1 [Compound 34, (S)—N-(4-([1,2,4]triazolo[1,5-a]pyridin-7-yloxy)-3-methylphenyl)-1,2,3,4,4a,5-hexahydropyrazino[1,2-d]pyrimido[4′,5′:5,6]pyrido[3,2-b][1,4]oxazin-11-amine] | 474 nM |
| < 5.00 | 6.90 | Cc1cc(Nc2ncnc3cc4c(nc23)N2CCNC[C@@H]2CO4)ccc1Oc1ccn2ncnc2c1 [Compound 35, (R)—N-(4-([1,2,4]triazolo[1,5-a]pyridin-7-yloxy)-3-methylphenyl)-1,2,3,4,4a,5-hexahydropyrazino[1,2-d]pyrimido[4′,5′:5,6]pyrido[3,2-b][1,4]oxazin-11-amine] | > 500 nM |
| < 5.00 | 6.33 | Cc1cc(Nc2ncnc3ccc4c(c23)OC[C@@H]2CN4CCN2)ccc1Oc1ccn2ncnc2c1 [Compound 49, (3S)—N-(4-([1,2,4]triazolo[1,5-a]pyridin-7-yloxy)-3-methylphenyl)-3,4,5,6-tetrahydro-2H-3,7-methano[1,4,7]oxadiazonino[2,3-f]quinazolin-13-amine] | > 500 nM |
| < 5.00 | 6.71 | Cc1cc(Nc2ncnc3ccc4c(c23)OC[C@@H]2CN4CCN2C)ccc1Oc1ccn2ncnc2c1 [Compound 50, (3S)—N-(4-([1,2,4]triazolo[1,5-a]pyridin-7-yloxy)-3-methylphenyl)-4-methyl-3,4,5,6-tetrahydro-2H-3,7-methano[1,4,7]oxadiazonino[2,3-f]quinazolin-13-amine] | > 500 nM |
| < 5.00 | 6.89 | Cc1cc(Nc2ncnc3ccc4c(c23)OC[C@H]2CN4CCN2)ccc1Oc1ccn2ncnc2c1 [Compound 51, (3R)—N-(4-([1,2,4]triazolo[1,5-a]pyridin-7-yloxy)-3-methylphenyl)-3,4,5,6-tetrahydro-2H-3,7-methano[1,4,7]oxadiazonino[2,3-f]quinazolin-13-amine] | > 500 nM |
| < 5.00 | 6.66 | Cc1cc(Nc2ncnc3ccc4c(c23)OC[C@H]2CN4CCN2C)ccc1Oc1ccn2ncnc2c1 [Compound 52, (3R)—N-(4-([1,2,4]triazolo[1,5-a]pyridin-7-yloxy)-3-methylphenyl)-4-methyl-3,4,5,6-tetrahydro-2H-3,7-methano[1,4,7]oxadiazonino[2,3-f]quinazolin-13-amine] | > 500 nM |
| 6.42 | 8.25 | CN(C)C/C=C/C(=O)N1CCN2C[C@@H]1COc1c2ccc2ncnc(Nc3ccc(Oc4ccn5ncnc5c4)c(F)c3)c12 [Compound 76, (E)-1-((3R)-13-((4-([1,2,4]triazolo[1,5-a]pyridin-7-yloxy)-3-fluorophenyl)amino)-2,3,5,6-tetrahydro-4H-3,7-methano[1,4,7]oxadiazonino[2,3-f]quinazolin-4-yl)-4-(dimethylamino)but-2-en-1-one] | 5.86 nM |
| 6.15 | 7.64 | Cc1cc(Nc2ncnc3ccc4c(c23)OC[C@H]2CN4CCN2C(=O)/C=C/C2CN(C)C2)ccc1Oc1ccn2ncnc2c1 [Compound 80, (E)-1-((3R)-13-((4-([1,2,4]triazolo[1,5-a]pyridin-7-yloxy)-3-methylphenyl)amino)-2,3,5,6-tetrahydro-4H-3,7-methano[1,4,7]oxadiazonino[2,3-f]quinazolin-4-yl)-3-(1-methylazetidin-3-yl)prop-2-en-1-one] | 77.2 nM |
| 6.11 | 7.76 | Cc1cc(Nc2ncnc3ccc4c(c23)OC[C@H]2CN4CCN2C(=O)/C=C/C2(F)CN(C)C2)ccc1Oc1ccn2ncnc2c1 [Compound 81, (E)-1-((3R)-13-((4-([1,2,4]triazolo[1,5-a]pyridin-7-yloxy)-3-methylphenyl)amino)-2,3,5,6-tetrahydro-4H-3,7-methano[1,4,7]oxadiazonino[2,3-f]quinazolin-4-yl)-3-(3-fluoro-1-methylazetidin-3-yl)prop-2-en-1-one] | 8.51 nM |
| < 5.00 | 7.76 | Cc1cc(Nc2ncnc3ccc4c(c23)OC[C@H]2COCCN42)ccc1Oc1ccn2ncnc2c1 [Compound 85, (R)—N-(4-([1,2,4]triazolo[1,5-a]pyridin-7-yloxy)-3-methylphenyl)-6a,7,9,10-tetrahydro-6H-[1,4]oxazino[4′,3′:4,5][1,4]oxazino[2,3-f]quinazolin-4-amine] | 181 nM |
| 5.55 | 7.35 | Cc1cc(Nc2ncnc3ccc4c(c23)OC[C@H]2CN4CCN2C(=O)/C=C/[C@@H](C)N(C)C)ccc1Oc1ccn2ncnc2c1 [Compound 88, (4R,E)-1-((3R)-13-((4-([1,2,4]triazolo[1,5-a]pyridin-7-yloxy)-3-methylphenyl)amino)-2,3,5,6-tetrahydro-4H-3,7-methano[1,4,7]oxadiazonino[2,3-f]quinazolin-4-yl)-4-(dimethylamino)pent-2-en-1-one formic acid] | 60.3 nM |
